Assay results as given in patent US9023789B2, “Amylin analogs and pharmaceutical compositions thereof” (Novo Nordisk A/S, priority 2012, dated 2015).
Numbered stars: 1 amine (or outer) side, 2 acyl side, 3 side chain; on linkers, the order of the positions; unused ones are H or OH. Bridge positions count the residues as written; N and C are the ends. Side chains are listed from the residue outwards. Peptide text beside a SMILES is read from it. * marks the point of attachment. C20 diacid = O=C(O)CCCCCCCCCCCCCCCCCCC(=O)*; γGlu = O=C(O)[C@H](CCC(=O)[*:2])N[*:1]

Columns and labels:
[1] = biological target: T1, human amylin 3(a) receptor (human calcitonin receptor + RAMP-3) in BHK570 cells (Homo sapiens, UniProt O60896+P30988); test: ASSAY (II)a functional assay, human amylin receptor (CRE luciferase); assay type: cell-based
T1 construct: expressed in transfected cells
T1 sequence (O60896 24-148): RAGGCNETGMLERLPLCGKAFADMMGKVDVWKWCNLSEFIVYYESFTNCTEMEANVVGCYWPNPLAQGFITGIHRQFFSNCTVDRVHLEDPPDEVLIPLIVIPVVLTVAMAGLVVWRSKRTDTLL
T1 sequence (P30988 25-474): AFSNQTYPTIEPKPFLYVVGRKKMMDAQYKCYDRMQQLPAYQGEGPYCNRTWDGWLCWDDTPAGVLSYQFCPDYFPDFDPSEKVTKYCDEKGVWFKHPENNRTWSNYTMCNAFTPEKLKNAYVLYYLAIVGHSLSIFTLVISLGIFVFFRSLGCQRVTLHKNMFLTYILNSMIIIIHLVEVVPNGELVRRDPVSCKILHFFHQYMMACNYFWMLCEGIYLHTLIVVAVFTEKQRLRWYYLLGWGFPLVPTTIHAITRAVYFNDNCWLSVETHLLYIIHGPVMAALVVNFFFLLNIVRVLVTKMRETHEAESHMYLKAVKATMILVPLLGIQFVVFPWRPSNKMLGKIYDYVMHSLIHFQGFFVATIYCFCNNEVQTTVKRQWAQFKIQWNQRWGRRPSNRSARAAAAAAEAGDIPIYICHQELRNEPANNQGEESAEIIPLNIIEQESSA
Method in brief: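 Ligand exposure 3 h at 37 °C, 5% CO2 in DMEM with 10% FBS, 10 mM Hepes pH 7.4. cAMP-driven luciferase read by luminescence after 30 min LucLite at room temperature.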

[2] = ASSAY (III) ThT fibrillation assay for physical stability; assay type: physicochemical
Method in brief: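 Formulations with 1 μM ThT, pH adjusted as required, incubated at 37 °C with 960 rpm orbital shaking; fluorescence (ex 444/em 485 nm) read every 20 min. Fibrillation reported as mean ThT fluorescence ± SD of 4–8 replicates at time points; polypeptide concentration measured by reverse-phase HPLC before and after, post-centrifugation.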

[3] = hCTR funct. EC50 divided by hAmylin-R funct. EC50
[4] = hCTR funct. EC50 over hAmylin-R funct. EC50
[5] = human functional selectivity: hCTR funct. EC50 / hAmylin-R funct. EC50

Compound	Ratio hCT/hAmylin funct. [1, 3]	Ratio hCT/hAmylin funct. [1, 4]	Ratio hCT/hAmylin funct. [1, 5]	ThT pH 4.0 lag time (h) [2] [h]
CC[C@H](C)[C@H](NC(=O)[C@H](C)NC(=O)CNC(=O)[C@H](Cc1ccccc1)NC(=O)[C@H](CC(N)=O)NC(=O)[C@@H]1CCCN1C(=O)[C@H](CO)NC(=O)[C@H](CO)NC(=O)[C@H](Cc1c[nH]cn1)NC(=O)[C@H](CCCNC(=N)N)NC(=O)[C@H](CC(C)C)NC(=O)[C@H](Cc1ccccc1)NC(=O)[C@H](CCC(=O)O)NC(=O)[C@H](C)NC(=O)[C@H](CC(C)C)NC(=O)[C@H](CCCNC(=N)N)NC(=O)[C@H](CCC(N)=O)NC(=O)[C@@H](NC(=O)[C@H](C)NC(=O)[C@@H]1CSSC[C@H](NC(=O)[C@@H](N)CCCCNC(=O)CC[C@H](NC(=O)CCCCCCCCCCCCCCCCCCC(=O)O)C(=O)O)C(=O)N[C@@H](CC(N)=O)C(=O)N[C@@H]([C@@H](C)O)C(=O)N[C@@H](C)C(=O)N[C@@H]([C@@H](C)O)C(=O)N1)[C@@H](C)O)C(=O)N1CCC[C@H]1C(=O)N[C@@H](CO)C(=O)N[C@@H](CO)C(=O)N[C@H](C(=O)N[C@@H](CC(N)=O)C(=O)N[C@H](C(=O)NCC(=O)N[C@@H](CO)C(=O)N[C@@H](CCCNC(=N)N)C(=O)N[C@H](C(=O)N[C@@H](Cc1ccc(O)cc1)C(N)=O)[C@@H](C)O)C(C)C)[C@@H](C)O [Example 51] (H-K([γGlu-C20 diacid])CNTATCATQRLAEFLRHSSPNFGAIPSSTNVGSRTY-NH2; disulfide 2-7 (inferred); N-terminus assumed)	14.0	14.0	14.0	7
CC[C@H](C)[C@H](NC(=O)[C@H](C)NC(=O)CNC(=O)[C@H](Cc1ccccc1)NC(=O)[C@H](CC(N)=O)NC(=O)[C@@H]1CCCN1C(=O)[C@H](CO)NC(=O)[C@H](CO)NC(=O)[C@H](Cc1c[nH]cn1)NC(=O)[C@H](CCCNC(=N)N)NC(=O)[C@H](CC(C)C)NC(=O)[C@H](Cc1ccccc1)NC(=O)[C@H](CC(N)=O)NC(=O)[C@H](C)NC(=O)[C@H](CC(C)C)NC(=O)[C@H](CCCNC(=N)N)NC(=O)[C@H](CCC(N)=O)NC(=O)[C@@H](NC(=O)[C@H](C)NC(=O)[C@@H]1CSSC[C@H](NC(=O)[C@H](CCCCN)NC(=O)CC[C@H](NC(=O)CCCCCCCCCCCCCCCCCCC(=O)O)C(=O)O)C(=O)N[C@@H](CC(N)=O)C(=O)N[C@@H]([C@@H](C)O)C(=O)N[C@@H](C)C(=O)N[C@@H]([C@@H](C)O)C(=O)N1)[C@@H](C)O)C(=O)N1CCC[C@H]1C(=O)N[C@@H](CO)C(=O)N[C@@H](CO)C(=O)N[C@H](C(=O)N[C@@H](CC(N)=O)C(=O)N[C@H](C(=O)NCC(=O)N[C@@H](CO)C(=O)N[C@@H](CCCCN)C(=O)N[C@H](C(=O)N[C@@H](Cc1ccc(O)cc1)C(N)=O)[C@@H](C)O)C(C)C)[C@@H](C)O [Example 34]	8.4		8.4	35
CC[C@H](C)[C@H](NC(=O)[C@H](C)NC(=O)CNC(=O)[C@H](Cc1ccccc1)NC(=O)[C@H](CC(N)=O)NC(=O)[C@@H]1CCCN1C(=O)[C@H](CO)NC(=O)[C@H](CO)NC(=O)[C@H](Cc1c[nH]cn1)NC(=O)[C@H](CCCNC(=N)N)NC(=O)[C@H](CC(C)C)NC(=O)[C@H](Cc1ccccc1)NC(=O)[C@H](CC(N)=O)NC(=O)[C@H](C)NC(=O)[C@H](CC(C)C)NC(=O)[C@H](CCCNC(=N)N)NC(=O)[C@H](CCC(N)=O)NC(=O)[C@@H](NC(=O)[C@H](C)NC(=O)[C@@H]1CSSC[C@H](NC(=O)[C@H](CCCCN)NC(=O)CC[C@H](NC(=O)CCCCCCCCCCCCCCCCCCC(=O)O)C(=O)O)C(=O)N[C@@H](CC(N)=O)C(=O)N[C@@H]([C@@H](C)O)C(=O)N[C@@H](C)C(=O)N[C@@H]([C@@H](C)O)C(=O)N1)[C@@H](C)O)C(=O)N1CCC[C@H]1C(=O)N[C@@H](CO)C(=O)N[C@@H](CO)C(=O)N[C@H](C(=O)N[C@@H](CC(N)=O)C(=O)N[C@H](C(=O)NCC(=O)N[C@@H](CO)C(=O)N[C@@H](CCC(=O)O)C(=O)N[C@H](C(=O)N[C@@H](Cc1ccc(O)cc1)C(N)=O)[C@@H](C)O)C(C)C)[C@@H](C)O [Example 23]	8.9	8.9	8.9	3

More lines, now with the values ahead:

Ratio hCT/hAmylin funct. [1, 3]	Ratio hCT/hAmylin funct. [1, 4]	Ratio hCT/hAmylin funct. [1, 5]	ThT pH 4.0 lag time (h) [2] [h]	Compound
9.9	9.9	9.9	25	CC[C@H](C)[C@H](NC(=O)[C@H](C)NC(=O)CNC(=O)[C@H](Cc1ccccc1)NC(=O)[C@H](CC(N)=O)NC(=O)[C@@H]1CCCN1C(=O)[C@H](CO)NC(=O)[C@H](CO)NC(=O)[C@H](Cc1c[nH]cn1)NC(=O)[C@H](CCCNC(=N)N)NC(=O)[C@H](CC(C)C)NC(=O)[C@H](Cc1ccccc1)NC(=O)[C@H](CCC(=O)O)NC(=O)[C@H](C)NC(=O)[C@H](CC(C)C)NC(=O)[C@H](CCCNC(=N)N)NC(=O)[C@H](CCC(N)=O)NC(=O)[C@@H](NC(=O)[C@H](C)NC(=O)[C@@H]1CSSC[C@H](NC(=O)[C@@H](N)CCCCNC(=O)CC[C@H](NC(=O)CC[C@H](NC(=O)CCCCCCCCCCCCCCCCCCC(=O)O)C(=O)O)C(=O)O)C(=O)N[C@@H](CC(N)=O)C(=O)N[C@@H]([C@@H](C)O)C(=O)N[C@@H](C)C(=O)N[C@@H]([C@@H](C)O)C(=O)N1)[C@@H](C)O)C(=O)N1CCC[C@H]1C(=O)N[C@@H](CO)C(=O)N[C@@H](CO)C(=O)N[C@H](C(=O)N[C@@H](CC(N)=O)C(=O)N[C@H](C(=O)NCC(=O)N1CCC[C@H]1C(=O)N[C@@H](CC(N)=O)C(=O)N[C@H](C(=O)N[C@@H](Cc1ccccc1)C(N)=O)[C@@H](C)O)C(C)C)[C@@H](C)O [Example 127] (H-K([γGlu-γGlu-C20 diacid])CNTATCATQRLAEFLRHSSPNFGAIPSSTNVGPNTF-NH2; disulfide 2-7 (inferred))
16.4	16.4	16.4	45	CC[C@H](C)[C@H](NC(=O)[C@H](C)NC(=O)CNC(=O)[C@H](Cc1ccccc1)NC(=O)[C@H](CC(N)=O)NC(=O)[C@@H]1CCCN1C(=O)[C@H](CO)NC(=O)[C@H](CO)NC(=O)[C@H](Cc1c[nH]cn1)NC(=O)[C@H](CCCNC(=N)N)NC(=O)[C@H](CC(C)C)NC(=O)[C@H](Cc1ccccc1)NC(=O)[C@H](CCC(=O)O)NC(=O)[C@H](C)NC(=O)[C@H](CC(C)C)NC(=O)[C@H](CCCNC(=N)N)NC(=O)[C@H](CCC(N)=O)NC(=O)[C@@H](NC(=O)[C@H](C)NC(=O)[C@@H]1CSSC[C@H](NC(=O)[C@@H](N)CCCCNC(=O)CC[C@H](NC(=O)CC[C@H](NC(=O)CCCCCCCCCCCCCCCCCCC(=O)O)C(=O)O)C(=O)O)C(=O)N[C@@H](CC(N)=O)C(=O)N[C@@H]([C@@H](C)O)C(=O)N[C@@H](C)C(=O)N[C@@H]([C@@H](C)O)C(=O)N1)[C@@H](C)O)C(=O)N1CCC[C@H]1C(=O)N[C@@H](CO)C(=O)N[C@@H](CO)C(=O)N[C@H](C(=O)N[C@@H](CC(N)=O)C(=O)N[C@H](C(=O)NCC(=O)N1CCC[C@H]1C(=O)N[C@@H](Cc1c[nH]cn1)C(=O)N[C@H](C(=O)N[C@@H](Cc1ccc(O)cc1)C(N)=O)[C@@H](C)O)C(C)C)[C@@H](C)O [Example 124] (H-K([γGlu-γGlu-C20 diacid])CNTATCATQRLAEFLRHSSPNFGAIPSSTNVGPHTY-NH2; disulfide 2-7 (inferred))
